Test results published in paper PMC3914206.

Key:
Type in all cases: binding
Conditions in all cases: Compound Concentration 10 µM
panel of 442 kinases [1] = biological target: T1, panel of 442 kinases (Homo sapiens, UniProt O43293)
T1 construct: purchased KINOMEscan
From the text: (§1) We assessed the selectivity of members of this scaffold using the KINOMEscan methodology across a near comprehensive panel of 442 kinases [[18,27]].

panel of 442 kinases [2] = biological target: T2, panel of 442 kinases (Homo sapiens, UniProt P06239)
T2 construct: purchased KINOMEscan
From the text: as §1

panel of 442 kinases [3] = biological target: T3, panel of 442 kinases (Homo sapiens, UniProt Q9Y616)
T3 construct: purchased KINOMEscan
T3 sequence (Q9Y616 1-596): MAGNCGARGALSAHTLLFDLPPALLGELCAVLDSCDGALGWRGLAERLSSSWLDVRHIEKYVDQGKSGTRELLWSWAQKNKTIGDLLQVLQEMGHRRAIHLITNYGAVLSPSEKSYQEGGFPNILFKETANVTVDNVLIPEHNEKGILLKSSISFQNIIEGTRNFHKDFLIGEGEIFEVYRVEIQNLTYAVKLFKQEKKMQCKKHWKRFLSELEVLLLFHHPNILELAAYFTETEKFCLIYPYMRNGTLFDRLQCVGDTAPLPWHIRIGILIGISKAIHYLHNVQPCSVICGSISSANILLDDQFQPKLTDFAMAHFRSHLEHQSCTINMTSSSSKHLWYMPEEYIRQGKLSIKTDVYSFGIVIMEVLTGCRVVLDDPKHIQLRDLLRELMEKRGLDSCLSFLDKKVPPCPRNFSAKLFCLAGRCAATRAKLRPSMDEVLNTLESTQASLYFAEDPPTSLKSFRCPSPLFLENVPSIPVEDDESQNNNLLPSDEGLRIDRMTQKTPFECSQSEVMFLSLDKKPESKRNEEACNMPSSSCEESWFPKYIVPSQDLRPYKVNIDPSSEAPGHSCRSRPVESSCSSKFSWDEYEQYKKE
From the text: as §1

T2 sequence (P06239 whole entry): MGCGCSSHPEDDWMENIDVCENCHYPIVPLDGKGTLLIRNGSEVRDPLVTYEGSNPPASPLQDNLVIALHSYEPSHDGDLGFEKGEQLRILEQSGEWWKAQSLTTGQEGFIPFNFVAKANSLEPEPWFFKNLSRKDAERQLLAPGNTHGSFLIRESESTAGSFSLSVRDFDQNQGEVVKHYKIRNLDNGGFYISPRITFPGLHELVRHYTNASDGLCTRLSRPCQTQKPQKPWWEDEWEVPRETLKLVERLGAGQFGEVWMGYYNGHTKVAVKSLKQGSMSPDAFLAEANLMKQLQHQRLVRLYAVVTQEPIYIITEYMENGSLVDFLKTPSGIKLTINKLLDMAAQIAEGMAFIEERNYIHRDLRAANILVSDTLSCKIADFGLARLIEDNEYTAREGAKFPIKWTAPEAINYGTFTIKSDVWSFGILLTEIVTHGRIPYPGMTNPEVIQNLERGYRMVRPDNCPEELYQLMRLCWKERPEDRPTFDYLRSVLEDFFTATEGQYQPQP
T1 sequence (O43293 whole entry): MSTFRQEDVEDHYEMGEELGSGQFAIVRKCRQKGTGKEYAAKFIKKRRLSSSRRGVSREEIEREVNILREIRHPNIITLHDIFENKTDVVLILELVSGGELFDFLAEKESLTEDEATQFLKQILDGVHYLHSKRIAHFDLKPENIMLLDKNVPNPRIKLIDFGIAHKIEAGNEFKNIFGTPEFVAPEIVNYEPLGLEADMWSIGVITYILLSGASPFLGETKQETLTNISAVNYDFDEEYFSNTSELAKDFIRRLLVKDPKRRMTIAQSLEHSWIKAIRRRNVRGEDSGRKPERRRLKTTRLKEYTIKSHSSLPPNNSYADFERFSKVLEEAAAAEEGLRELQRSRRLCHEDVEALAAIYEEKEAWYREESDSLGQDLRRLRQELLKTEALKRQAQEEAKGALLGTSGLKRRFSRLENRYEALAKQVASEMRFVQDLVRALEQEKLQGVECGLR

Structure (SMILES)	KINOMEscan: DAPK3 (panel of 442 kinases [1])	KINOMEscan: LCK (panel of 442 kinases [2])	KINOMEscan: IRAK3 (panel of 442 kinases [3])
CCOc1cc(C(=O)N2CCC(N3CCN(C)CC3)CC2)ccc1Nc1ncc2c(n1)N(C1CCCC1)c1ccccc1C(=O)N2C [Compound 26]	100	100	100
COc1cc(C(=O)N2CCC(N3CCN(C)CC3)CC2)ccc1Nc1ncc2c(n1)N(C1CCCC1)c1ccccc1C(=O)N2C [Compound 25, 11-cyclopentyl-2-((2-methoxy-4-(4-(4-methylpiperazin-1-yl)piperidine-1-carbonyl)phenyl)amino)-5-methyl-5H-benzo[e]pyrimido[5,4-b][1,4]diazepin-6(11H)-one]	86	66	100
COc1cc(C(=O)N2CCC(N3CCN(C)CC3)CC2)ccc1Nc1ncc2c(n1)N(C)c1ccccc1C(=O)N2C [15 (LRRK2-IN-1)]	67	100	100
